Measured values reported in PMC10018692 (ACS Omega, 2023).
≈ marks a conversion by molar mass, not a printed value.

Assays:
[1] = Pharmacokinetic study in albino rats; type: in vivo; details: 10 mg/kg
[2] = Drug solubility of free PTL and PTL-loaded nanoparticles; type: physicochemical; details: phosphate buffer, pH 7.4

CC(=O)O[C@H]1C(=O)[C@@]2(C)[C@H]([C@H](OC(=O)c3ccccc3)[C@]3(O)C[C@H](OC(=O)[C@H](O)[C@@H](NC(=O)c4ccccc4)c4ccccc4)C(C)=C1C3(C)C)[C@]1(OC(C)=O)CO[C@@H]1C[C@@H]2O [PTL, Paclitaxel]
AUC(0-inf) ([1]; rat, plasma, po): 2980 ± 53.1 ng·h/mL
AUC(0-t) ([1]; rat, plasma, po): 2830 ± 56.8 ng·h/mL
Cmax ([1]; rat, plasma, po): 239 ± 26.2 ng/mL
Tmax ([1]; rat, plasma, po): 2 ± 0.05 h
half-life ([1]; rat, plasma, po): 8.76 ± 1.1 h
Kel ([1]; rats): 0.072 ± 0.001
plasma PTL concentration after 12 h ([1]; rats, HPLC): below the HPLC quantification limit
solubility at 24 h [2]: ~4.5 µg/mL (≈ 5.27 µM)
